Experimental data as given in US6494824B1, “Medical, radiotherapy source vial” (priority 1998, dated 2002).

Tests used:
[1] = Radiation exposure measured during radiogas balloon treatment; type: in vivo, porcine; conditions: 250-300 mCi in balloon
Method: Prior art systems can falter with regards to dose homogeneity, optimal efficacy, radiation safety restrictions, patient handling, and radionuclide availability. The present medical radiation treatment system was developed and tested for irradiation with historically safe xenon-133 inert radiogas. In order to determine the efficacy of xenon-133 radiogas to inhibit neointimal formation and subsequent luminal restenosis, angioplasty balloon injury was performed in the coronary arteries of 17 juvenile porcine subjects. […] This was performed using multiple trials with Cook GRII® balloon catheters of various coronary sizes with different quantities of xenon-133 (millicuries), exposure time (min.), and volumes (cc). Customized solid water phantoms, layered Gafchromic film, laser/light densitometry readings, and referenced dosimetry graphics were standardly applied to obtain these referenced measurements.
Localization of the radiogas filled balloon was verified by Gamma Camera and fluoroscopic imaging. The radiation exposure measured 100 mR/h at the chest wall and 5 mR/h immediately bedside. Two weeks following treatment, the animals were harvested, the arteries perfusion fixed, stained, and morphometrically analyzed. […]

[2] = system: balloon-injured coronary arteries (neointimal formation); test: Angioplasty balloon injury of porcine coronary arteries, xenon-133 radiogas balloon irradiation, morphometry after two weeks; type: in vivo; conditions: for IA (intimal area): two weeks after treatment, control 1.04 ± 0.20; for IA/FL (intimal area corrected for medical fracture length): control 0.55 ± 0.06
Method: Prior art systems can falter with regards to dose homogeneity, optimal efficacy, radiation safety restrictions, patient handling, and radionuclide availability. The present medical radiation treatment system was developed and tested for irradiation with historically safe xenon-133 inert radiogas. In order to determine the efficacy of xenon-133 radiogas to inhibit neointimal formation and subsequent luminal restenosis, angioplasty balloon injury was performed in the coronary arteries of 17 juvenile porcine subjects. Following balloon injury of the coronary arteries of these porcine subjects, 3.0 to 3.5 mm balloons of 30 to 40 mm lengths were positioned to cover and overlap the injured vessel segment. A negative pressure was obtained in the radiocatheter prior to placement. Xenon-133 activity of 250-300 mCi (in 2.0-2.5 cc's) was injected to fill the balloon segment, uniformly abutting the lumen wall. A dose of either 15 Gy or 30 Gy was prescribed and delivered to a target tissue depth of 0.25 mm from the expanded balloon surface. The dwell time during inflation was 2±0.5 minutes (avg.). Prior in vitro dosimetry trials were performed to obtain reference micro-dosimetry results. Summary data analysis including reference tables and graphics, were performed and applied for delivery ranges as described above. This was performed using multiple trials with Cook GRII® balloon catheters of various coronary sizes with different quantities of xenon-133 (millicuries), exposure time (min.), and volumes (cc). Customized solid water phantoms, layered Gafchromic film, laser/light densitometry readings, and referenced dosimetry graphics were standardly applied to obtain these referenced measurements.
Localization of the radiogas filled balloon was verified by Gamma Camera and fluoroscopic imaging. The radiation exposure measured 100 mR/h at the chest wall and 5 mR/h immediately bedside. Two weeks following treatment, the animals were harvested, the arteries perfusion fixed, stained, and morphometrically analyzed. The intimal area (IA) was compared between the irradiated and control arteries.

With `[133Xe]` [Xe-133, xenon-133] as the compound, how does the radiation exposure ([1]; at the chest wall) read?
Its radiation exposure is 100 mR/h.

What about the radiation exposure ([1]; immediately bedside) of the same compound?
Its radiation exposure is 5 mR/h.

And the “% absolute ratio reduction (IA/FL vs control)” value ([2]; 15 Gy)?
The value was 71%.

And the “IA (intimal area)” value ([2]; 15 Gy at 0.25 mm tissue depth, n = 9)?
The value was 0.34 ± 0.17 mm^2.

And the “share of group showing IA (mm^2) of ≦0.06” value ([2]; 15 Gy group)?
The value was 66%.

What about the “IA/FL (intimal area corrected for medical fracture length)” value ([2]; 15 Gy, n = 9) of the same compound?
The value was 0.16 ± 0.08.

What about the “% absolute ratio reduction (IA/FL vs control)” value ([2]; 30 Gy) of the same compound?
Its value is 45%.

What about the “IA (intimal area)” value ([2]; 30 Gy at 0.25 mm tissue depth, n = 8) of the same compound?
The value was 0.38 ± 0.18 mm^2.

What about the “share of group showing IA (mm^2) of ≦0.06” value ([2]; 30 Gy group) of the same compound?
The value was 44%.

What about the thrombosis ([2]; 30 Gy group) of the same compound?
The thrombosis was “slight trend toward increased thrombosis”.

What about the “IA/FL (intimal area corrected for medical fracture length)” value ([2]; 30 Gy, n = 8) of the same compound?
Its value is 0.32 ± 0.12.

And the “neointimal formation (conclusion from harvested vessels)” value ([2]; porcine model, radiogas balloon catheter)?
The value was “effective in markedly reducing neointimal formation”.
